In US20240018145A1, “[…]-DEPENDENT EN[…] TREATING OR […]” (priority 2020, published 2024) one finds EC50 data, which are given here for 29 molecules.

Read-outs that look alike come from different tables or passages of the source. A value given as a limit tells only on which side of the number the result lay.

The test system of this assay is FLU A (PR/8/34). Description: Flu A Neuraminidase Antiviral Assay. Format: cell-based.

For orientation: EC50 means the concentration that produces a half-maximal response. The molecule `CN1C(=O)c2c(O)c(=O)ccn2N2C1CCC(O)C2(C)c1ccccc1` (centres unmarked) [Compound 137D, 2,7-dihydroxy-1,5-dimethyl-1-phenyl-1,2,3,4,4a,5-hexahydrodipyrido[1,2-b:2′,1′-f][1,2,4]triazine-6,8-dione] displayed an EC50 of 49.3 nM. That is a double-digit nanomolar value.

Take `CC1(c2ccccc2)CCCC2N(CC3CC3)C(=O)c3c(O)c(=O)ccn3N21` (single isomer, unassigned) [Compound 37A, 5-(cyclopropylmethyl)-7-hydroxy-1-methyl-1-phenyl-1,2,3,4,4a,5-hexahydrodipyrido[1,2-b:2′,1′-f][1,2,4]triazine-6,8-dione]: the EC50 was 11.4 nM.

In turn, `CN1C(=O)c2c(O)c(=O)ccn2N2C1CCCC2(C)c1ccc(F)cc1` (single isomer, unassigned) [Compound 26B, 1-(4-fluorophenyl)-7-hydroxy-1,5-dimethyl-1,2,3,4,4a,5-hexahydrodipyrido[1,2-b:2′,1′-f][1,2,4]triazine-6,8-dione] had an EC50 of 1800 nM.

On to `CCN1C(=O)c2c(O)c(=O)ccn2N2C(c3ccccc3)C(CCC(F)F)CCC12` (single isomer, unassigned) [Compound 110A, 2-(3,3-difluoropropyl)-5-ethyl-7-hydroxy-1-phenyl-1,2,3,4,4a,5-hexahydrodipyrido[1,2-b:2′,1′-f][1,2,4]triazine-6,8-dione], for which a half-maximal response (EC50) required 1120 nM. This EC50 lies about 1.6-fold lower than the previous one.

With `CC1CCC2N(C)C(=O)c3c(O)c(=O)ccn3N2C1(C)c1ccccc1` (single isomer, unassigned) [Compound 29B, 7-hydroxy-1,2,5-trimethyl-1-phenyl-1,2,3,4,4a,5-hexahydrodipyrido[1,2-b:2′,1′-f][1,2,4]triazine-6,8-dione], the midpoint of the response, the EC50, lay at 286 nM. This EC50 is about 3.9-fold lower than that of the molecule before.

The molecule `COc1ccccc1C1C(CC(F)(F)F)CCC2N(C)C(=O)c3c(O)c(=O)ccn3N12` (single isomer, unassigned) [Compound 125B, 7-hydroxy-1-(2-methoxyphenyl)-5-methyl-2-(2,2,2-trifluoroethyl)-1,2,3,4,4a,5-hexahydrodipyrido[1,2-b:2′,1′-f][1,2,4]triazine-6,8-dione] came in with an EC50 of 2.5 nM.

The molecule `CC1(c2ccccc2)CCCC2N(CCC(F)(F)F)C(=O)c3c(O)c(=O)ccn3N21` (single isomer, unassigned) [Compound 38A, 7-hydroxy-1-methyl-1-phenyl-5-(3,3,3-trifluoropropyl)-1,2,3,4,4a,5-hexahydrodipyrido[1,2-b:2′,1′-f][1,2,4]triazine-6,8-dione] showed an EC50 above 8100 nM.

As for `C=CCC1CCC2N(C)C(=O)c3c(O)c(=O)ccn3N2C1c1ccccc1Cl` (centres unmarked) [Compound 64A, 2-allyl-1-(2-chlorophenyl)-7-hydroxy-5-methyl-1,2,3,4,4a,5-hexahydrodipyrido[1,2-b:2′,1′-f][1,2,4]triazine-6,8-dione], the EC50 was 3790 nM.

In the case of `CCN1C(=O)c2c(O)c(=O)ccn2N2C1CCC1(CCC(F)(F)CC1)C2c1ccccc1` (single isomer, unassigned) [Compound 76A], the EC50 is above 810 nM.

For `CC1CC(c2ccccc2)N2C(C1)N(C)C(=O)c1c(O)c(=O)ccn12` (single isomer, unassigned) [Compound 6B, 7-hydroxy-3,5-dimethyl-1-phenyl-1,2,3,4,4a,5-hexahydrodipyrido[1,2-b:2′,1′-f][1,2,4]triazine-6,8-dione], the EC50 worked out at 7760 nM. This counts as single-digit micromolar.

The molecule `Cc1ccccc1C1N2C(CCC13CC1C(C3)C1(F)F)N(C)C(=O)c1c(O)c(=O)ccn12` (single isomer, unassigned) [Compound 69A, 6,6-difluoro-7′-hydroxy-5′-methyl-1′-(o-tolyl)-3′,4′,4a′,5′-tetrahydro-1′H-spiro[bicyclo[3.1.0]hexane-3,2′-dipyrido[1,2-b:2′,1′-f][1,2,4]triazine]-6′,8′-dione] yielded an EC50 of 2.3 nM.

In turn, `CCN1C(=O)c2c(O)c(=O)ccn2N2C(c3ccccc3C)C(CCC(F)F)CCC12` (single isomer, unassigned) [Compound 102A, 2-(3,3-difluoropropyl)-5-ethyl-7-hydroxy-1-(o-tolyl)-1,2,3,4,4a,5-hexahydrodipyrido[1,2-b:2′,1′-f][1,2,4]triazine-6,8-dione] returned an EC50 of 2.9 nM.

`Cc1cccc(F)c1C1C(CC(F)(F)F)CCC2N(C)C(=O)c3c(O)c(=O)ccn3N12` (single isomer, unassigned) [Compound 77C, 1-(2-fluoro-6-methylphenyl)-7-hydroxy-5-methyl-2-(2,2,2-trifluoroethyl)-1,2,3,4,4a,5-hexahydrodipyrido[1,2-b:2′,1′-f][1,2,4]triazine-6,8-dione] came in with an EC50 above 810 nM.

`CN1C(=O)c2c(O)c(=O)ccn2N2C1CCC2(C)c1ccccc1` (single isomer, unassigned) [Compound 61B, 6-hydroxy-1,4-dimethyl-1-phenyl-2,3,3a,4-tetrahydro-1H-pyrido[2,1-f]pyrrolo[1,2-b][1,2,4]triazine-5,7-dione]: the EC50 turned out to be 2730 nM.

Regarding `COC1(c2ccccc2)CCCC2C1n1ccc(=O)c(O)c1C(=O)N2C` (centres unmarked) [Compound 167, 7-hydroxy-1-methoxy-5-methyl-1-phenyl-1,3,4,4a,5,11a-hexahydro-2H-pyrido[1,2-a]quinoxaline-6,8-dione], where the note is “MDCK, 48 h”, the EC50 came out at 109 nM. This counts as sub-micromolar.

In turn, `CN1C(=O)c2c(O)c(=O)ccn2N2C(c3ccccc3F)C(CC(F)F)CCC12` (single isomer, unassigned) [Compound 113A, 2-(2,2-difluoroethyl)-1-(2-fluorophenyl)-7-hydroxy-5-methyl-1,2,3,4,4a,5-hexahydrodipyrido[1,2-b:2′,1′-f][1,2,4]triazine-6,8-dione] came in with an EC50 of 3440 nM.

`Cc1ccc(C2(C)CCCC3N(CC(F)(F)F)C(=O)c4c(O)c(=O)ccn4N32)nc1` (single isomer, unassigned) [Compound 49B, 7-hydroxy-1-methyl-1-(5-methylpyridin-2-yl)-5-(2,2,2-trifluoroethyl)-1,2,3,4,4a,5-hexahydrodipyrido[1,2-b:2′,1′-f][1,2,4]triazine-6,8-dione] came in with a 50% effective concentration (EC50) of 26.5 nM.

Molecule `CN1C(=O)c2c(O)c(=O)ccn2N2C1CCCC2(C)c1cccc(F)c1` (single isomer, unassigned) [Compound 25A, 1-(3-fluorophenyl)-7-hydroxy-1,5-dimethyl-1,2,3,4,4a,5-hexahydrodipyrido[1,2-b:2′,1′-f][1,2,4]triazine-6,8-dione] showed a concentration for a half-maximal effect (EC50) of 3.5 nM.

Consider `CN1C(=O)c2c(O)c(=O)ccn2N2C(c3ccccc3)[C@H]3CCCC[C@H]3C12` (stereo partly drawn) [Compound 16, (6bR,10aS)-4-hydroxy-6-methyl-11-phenyl-6a,6b,7,8,9,10,10a,11-octahydro-3H-pyrido[1′,2′:1,6][1,2,4]triazino[3,2-a]isoindole-3,5(6H)-dione], for which, under “MDCK, 48 h”, a half-maximal effect (EC50) was put at 4100 nM.

Turning to `CN1C(=O)c2c(O)c(=O)ccn2N2C1CCCC21CCCc2ccccc21` (single isomer, unassigned) [Compound 32A, 7-hydroxy-5-methyl-3,3′,4,4a,4′,5-hexahydro-2H,2′H-spiro[dipyrido[1,2-b:2′,1′-f][1,2,4]triazine-1,1′-naphthalene]-6,8-dione], the EC50 was above 8100 nM.

The molecule `CCN1C(=O)c2c(O)c(=O)cc(COC)n2N2C(c3ccccc3)C(CC(F)(F)F)CCC12` (centres unmarked) [Compound 131F, 5-ethyl-7-hydroxy-10-(methoxymethyl)-1-phenyl-2-(2,2,2-trifluoroethyl)-1,2,3,4,4a,5-hexahydrodipyrido[1,2-b:2′,1′-f][1,2,4]triazine-6,8-dione] gave an EC50 of 12.5 nM.

As to `CN1C(=O)c2c(O)c(=O)ccn2N2C1CCCC2(C)c1cccc(Cl)c1` (single isomer, unassigned) [Compound 28A, 1-(3-chlorophenyl)-7-hydroxy-1,5-dimethyl-1,2,3,4,4a,5-hexahydrodipyrido[1,2-b:2′,1′-f][1,2,4]triazine-6,8-dione], the EC50 came to 5.2 nM.

With `Cc1ccnc(C2(C)CCCC3N(CC(F)(F)F)C(=O)c4c(O)c(=O)ccn4N32)c1` (single isomer, unassigned) [Compound 50A, 7-hydroxy-1-methyl-1-(4-methylpyridin-2-yl)-5-(2,2,2-trifluoroethyl)-1,2,3,4,4a,5-hexahydrodipyrido[1,2-b:2′,1′-f][1,2,4]triazine-6,8-dione], the EC50 is above 8100 nM.

`CN1C(=O)c2c(O)c(=O)ccn2N2C1CCCC2(C)c1ccncc1` (single isomer, unassigned) [Compound 31B, 7-hydroxy-1,5-dimethyl-1-(pyridin-4-yl)-1,2,3,4,4a,5-hexahydrodipyrido[1,2-b:2′,1′-f][1,2,4]triazine-6,8-dione]: the EC50 was above 8100 nM.

In the case of `CN1C(=O)c2c(O)c(=O)ccn2N2C(c3ccccc3F)CCCC12` (single isomer, unassigned) [Compound 8A, 1-(2-fluorophenyl)-7-hydroxy-5-methyl-1,2,3,4,4a,5-hexahydrodipyrido[1,2-b:2′,1′-f][1,2,4]triazine-6,8-dione], the EC50 is above 8100 nM.

For `CCN1C(=O)c2c(O)c(=O)ccn2N2C1CCC1(CCC(F)(F)CC1)C2c1ccccc1` (single isomer, unassigned) [Compound 76B], the EC50 is 2 nM.

The molecule `CN1C(=O)c2c(O)c(=O)ccn2N2C(c3ccccc3F)CCCC12` (single isomer, unassigned) [Compound 8B, 1-(2-fluorophenyl)-7-hydroxy-5-methyl-1,2,3,4,4a,5-hexahydrodipyrido[1,2-b:2′,1′-f][1,2,4]triazine-6,8-dione] had an EC50 of 65.6 nM. Against the preceding molecule, the EC50 is about 33-fold higher.

Consider `CN1C(=O)c2c(O)c(=O)ccn2N2C(c3ccccc3)C(CC(F)F)CCC12` (single isomer, unassigned) [Compound 129A, 2-(2,2-difluoroethyl)-7-hydroxy-5-methyl-1-phenyl-1,2,3,4,4a,5-hexahydrodipyrido[1,2-b:2′,1′-f][1,2,4]triazine-6,8-dione], for which the response was half-maximal at 2.3 nM (EC50). This EC50 lies about 29-fold lower than the previous one.

Turning to `CN1C(=O)c2c(O)c(=O)ccn2N2C1CCCC2(C)c1ccccc1F` (single isomer, unassigned) [Compound 24A, 1-(2-fluorophenyl)-7-hydroxy-1,5-dimethyl-1,2,3,4,4a,5-hexahydrodipyrido[1,2-b:2′,1′-f][1,2,4]triazine-6,8-dione], the EC50 stood at 2.1 nM.
